Data: patent publication US20110160279A1, “METHODS FOR TREATMENT AND PREVENTION OF OTOTOXICITY BY siRNA” (BOARD OF TRUSTEES OF SOUTHERN ILLINOIS UNIVERSITY, priority 2007, published 2011)

Assays:
UB/OC-1 = experiment: Gentamicin-induced ROS generation by DCF2DA in UB/OC-1 cells; format: cell-based, mouse; details: capsazepine 10 μM or ruthenium red 20 μM for 15 min, then gentamicin (20 μM) 30 min
Protocol: FIG. 5 depicts that inhibition of TRPV1 reduces generation of reactive oxygen species (ROS) by aminoglycosides. UB/OC-1 cultures were pretreated with vehicle (control), capsazepine (10 μM) or ruthenium red (20 μM) for 15 min prior to the administration of vehicle (control) or gentamicin (20 μM) for 30 min and the generation of reactive oxygen species was determined by the fluorescence of 2′,7′-dichlorodihydrofluorescein diacetate (DCF2DA) using confocal microscopy.
In this study, the mouse organ of Corti cell line (UB/OC-1) was used to examine the properties of aminoglycoside-induced ROS generation. For these experiments, cells were grown on coverslips to 60-80% confluency, then pretreated with vehicle (control and gentamicin groups), capsazepine (10 μM) or ruthenium red (20 μM) for 15 min. This was followed by vehicle (control) or gentamicin for 30 min. Cells were then loaded with 2′,7′-dichlorodihydrofluorescein diacetate (DCF2DA) and imaged by confocal microscopy.

p53 = p53 protein expression in UB/OC-1 cells; format: cell-based, mouse; details: pretreatment (capsazepine 10 μM; BAPTA-AM 30 min) before cisplatin
Protocol: (§1) The increases in these proteins were attenuated by capsazepine (10 μM), implicating TRPV1 in this process.

Bax = Bax protein expression in UB/OC-1 cells; format: cell-based, mouse; details: pretreatment (capsazepine 10 μM; BAPTA-AM 30 min) before cisplatin
Protocol: as §1

UB-OC1 cells [1] = experiment: Apoptosis by TUNEL staining in UB-OC1 cells; format: cell-based, mouse; details: for apoptotic cells (TUNEL), of total cells: pretreated 30 min with TRPV1 inhibitor, then cisplatin 20 μM 24 h
Protocol: (§2) Immortalized organ of Corti cells derived from the mouse, UB/OC-1 cells, were obtained from Dr. Matthew Holley (Institute of Molecular Physiology, Addison Building, Western Bank, Sheffield, UK) and cultured in RPMI 1640 supplemented with 10% Fetalclone II (Hyclone, Logan, Utah) serum and penicillin-streptomycin. Cultures were grown in a 33° C. incubator in 10% CO2.
Frag-EL DNA fragmentation kit and H2DCFDA dye was purchased from (Calbiochem, San Diego, Calif.). TRPV1 antibody (Neuromics, Edina, Minn.) and secondary goat anti rabbit antibody was purchased from Santa Cruz Biotechnology (Santa Cruz, Calif.).
as §1

NOX3 mRNA [2] = experiment: Real time RT-PCR of NOX3 mRNA in rat cochlea; format: in vivo
Protocol: (§3) Animal procedures and sample collection: Male Wistar rats were used for this study. Pre-ABR's were performed 2-3 days before round window application of siTRPV1 or PBS. […] The cochleas were dissected and used for the preparation of total RNA or total protein extracts, or perfused with 2.5% glutaraldehyde for morphological studies by Scanning Electron Microscopy (SEM's) or 4% paraformaldehyde for immunocytochemistry.
(§4) RNA was isolated by adding 1 ml TR1 reagent to 100 mg of cochlear or cortical tissue or 0.5 ml TR1 reagent (Sigma, St. Louis, Mo.) per well of each six well plate, according to the manufacturer's instructions.
(§5) Real time reverse transcriptase polymerase chain reaction (RT-PCR): One microgram of total RNA was converted to cDNA using iScript cDNA Synthesis Kit (Bio-Rad, Hercules, Calif.), and qRTPCR was performed as described by (Mukherjea et al, 2006). Gene specific primer pairs were used for the various reactions and mRNA expression levels were normalized to the levels of GAPDH house keeping gene.
(§6) The rodent set of primers and siRNA were based on the homologous sequences in the rat and mouse cDNA sequences. The primers were purchased from Sigma Genosys (St. Louis, Mo.). Purified siRNA duplexes were purchased from Qiagen (Valencia, Calif.).

TRPV1 mRNA = experiment: Real time RT-PCR of TRPV1 mRNA in rat cochlea; format: in vivo
Protocol: as §3, §4, §5, §6

Rac1 = experiment: Real time RT-PCR of Rac1 mRNA in UB/OC-1 cells; format: cell-based, mouse; details: DPI 10 μM
Protocol: as §2, §4, §5, §6

TRPV1 = format: cell-based, mouse; details: pretreatment with 100 μM AEBSF or 10 μM DPI before cisplatin 2.5 μM
Protocol: as §2
To further study the role of ROS generated via cochlear NADPH oxidases in the induction of TRPV1 in the cochlea, in vitro experiments were performed using the organ of Corti transformed hair cell line, UB/OC1 (Rivolta et al., Proc. R. Sco. Lond., 265, 1595-1603, 1998). […] Immunolabeling was quantitated by fluorescence imaging using a confocal microscope. […] The immunofluorescence in these groups was reduced by 60 and 70%, respectively (FIG. 2B). […] The increases in expression of these genes were inhibited by DPI (10 μM), indicative of a role or NADPH oxidase activity in the induction of these subunits (FIG. 2G).

NADPH oxidase = details: 10 μM, cochlear extracts, Lucigenin probe
Protocol: In order to determine whether noise exposure increased the activity of NADPH oxidase in the chinchilla cochlea, a major source of reactive oxygen species (ROS), the activity of NADPH oxidase in cytosolic preparations from the cochlea was examined. The activity of NAD(P)H oxidase was determined using 50 μg protein from cochlear extracts incubated with 100 μM β-NAD(P)H in a total volume of 200 μl of Hank's HEPES buffer (pH 7.4). The assay was initiated by the addition of 50 μM N,N′-dimethyl-9,9′-biacridinium dinitrate (Lucigenin) (Sigma, St. Louis, Mo.) to the incubation mixture. Samples were counted immediately using a table top luminometer (Berthold Detection Systems FB Luminometer, Zylux Corp., Maryville, Tenn.) with sampling time every 6 sec. Samples were counted over a period of 5 min and the fluorescence recorded over 2 min of stable readings were averaged for that samples. Samples were run in duplicate and the NAD(P)H oxidase activity was normalized to the protein concentrations in each sample.

NOX3 mRNA [3] = experiment: Real time RT-PCR of NOX3 mRNA in UB/OC-1 cells; format: cell-based, mouse; details: DPI 10 μM
Protocol: as §2, §4, §5, §6

gp91 = experiment: Real time RT-PCR of gp91 mRNA in UB/OC-1 cells; format: cell-based, mouse; details: DPI 10 μM
Protocol: as §2, §4, §5, §6

UB-OC1 cells [4] = experiment: Cell viability and morphology of UB-OC1 cultures; format: cell-based, mouse

Oc1cc2c(cc1O)CN(C(=S)NCCc1ccc(Cl)cc1)CCC2 [capsazepine] was tested, and the “effect on ROS generation of the gentamicin group” value (UB/OC-1) was “suppressed”, the “effect on cisplatin-induced increase in p53” value (p53) was “attenuated” and the “effect on cisplatin-induced increase in Bax” value (Bax) was “attenuated”. For the same compound, the “effect on cell apoptosis compared to vehicle-treated control” value (UB-OC1 cells [1]) was “Neither capsazepine nor ruthenium red alone had any significant effect” and the “apoptotic cells (TUNEL), of total cells” value (UB-OC1 cells [1]) was roughly 7%.

O=C(O)CCCC[C@@H]1CCSS1 (racemic) [lipoic acid] was tested, and the “effect on basal expression of NOX3” value (NOX3 mRNA [2]; lipoic acid alone) was “significantly reduced”, the “effect on the increase in NOX3 by cisplatin” value (NOX3 mRNA [2]; lipoic acid pretreatment, cisplatin 72 hrs) was “attenuated” and the “effect on basal expression of TRPV1” value (TRPV1 mRNA; rat cochlea, lipoic acid alone, not statistically significant) was “tendency to reduce basal expression of TRPV1”. The “effect on cisplatin-induced TRPV1 expression in vivo” value (TRPV1 mRNA; rats pretreated with lipoic acid before cisplatin, 72 hrs) was “completely abolished”.

c1ccc2c(c1)[I+]c1ccccc1-2 [DPI, diphenyleneiodonium] was tested, and the “effect on cisplatin-induced increase in Rac1 expression” value (Rac1) was “inhibited”, the “reduction of TRPV1 immunofluorescence” value (TRPV1) was 70% and the “effect on NADPH oxidase activity” value (NADPH oxidase) was “blockade of enzyme activity”. The “effect on cisplatin-induced increase in NOX3 expression” value (NOX3 mRNA [3]) was “inhibited”, the “effect on cisplatin-induced increase in gp91 expression” value (gp91) was “inhibited” and the “effect on cell viability over a 24 h period” value (UB-OC1 cells [4]) was “did not significantly affect cell viability”.

With N.N.N.N.N.N.N.N.N.N.N.N.N.N.[Cl-].[Cl-].[Cl-].[Cl-].[Cl-].[Cl-].[O-2].[O-2].[Ru+3].[Ru+3].[Ru+4] [ruthenium red] the “effect on ROS generation of the gentamicin group” value (UB/OC-1) was “suppressed”, the “effect on cell apoptosis compared to vehicle-treated control” value (UB-OC1 cells [1]) was “Neither capsazepine nor ruthenium red alone had any significant effect” and the “apoptotic cells (TUNEL), of total cells” value (UB-OC1 cells [1]) was roughly 7%.
